Test results as given in US10143716B2, “Pawpaw and/or peach derived composition” (PHOENIX EAGLE COMPANY PTY LTD, priority 2002, dated 2018).
Entries after “also recorded” stand apart in the source; their conditions may differ.

Test system: PMR or poly-myalga-rheumatica
Experiment: Example 19B: patient with PMR (poly-myalga-rheumatica), pain relief
Assay type: in vivo, human
Settings: for pain relief: PMR pain in neck, shoulders, hands, knees and ankles

CC(=O)Nc1ccc(O)cc1 [Panamax]
pain relief: not effective to relieve their pain

Cc1ccc(-c2cc(C(F)(F)F)nn2-c2ccc(S(N)(=O)=O)cc2)cc1 [CELEBREX]
pain relief: proved to be effective; also recorded: effective as a painkiller
side-effects (human, in vivo): did not cause the same side-effects; also recorded: adverse effect on the medication they were taking following a heart attack
